In US6881741B2 (ViroChem Pharma Inc., priority 2001, dated 2005):
pIC50: −log10 of the molar value.

What follows are compounds tested against recombinant HCV NS5B (HCV RNA-dependent RNA polymerase) (Hepatitis C virus genotype 1b, UniProt P26663) (assay: biochemical). Conditions: HCV polymerase activity, list of compounds of Example 27; read-out: IC50 (polymerase activity).
Chain of recombinant HCV NS5B (HCV RNA-dependent RNA polymerase) (P26663 2420-3010 limits assumed): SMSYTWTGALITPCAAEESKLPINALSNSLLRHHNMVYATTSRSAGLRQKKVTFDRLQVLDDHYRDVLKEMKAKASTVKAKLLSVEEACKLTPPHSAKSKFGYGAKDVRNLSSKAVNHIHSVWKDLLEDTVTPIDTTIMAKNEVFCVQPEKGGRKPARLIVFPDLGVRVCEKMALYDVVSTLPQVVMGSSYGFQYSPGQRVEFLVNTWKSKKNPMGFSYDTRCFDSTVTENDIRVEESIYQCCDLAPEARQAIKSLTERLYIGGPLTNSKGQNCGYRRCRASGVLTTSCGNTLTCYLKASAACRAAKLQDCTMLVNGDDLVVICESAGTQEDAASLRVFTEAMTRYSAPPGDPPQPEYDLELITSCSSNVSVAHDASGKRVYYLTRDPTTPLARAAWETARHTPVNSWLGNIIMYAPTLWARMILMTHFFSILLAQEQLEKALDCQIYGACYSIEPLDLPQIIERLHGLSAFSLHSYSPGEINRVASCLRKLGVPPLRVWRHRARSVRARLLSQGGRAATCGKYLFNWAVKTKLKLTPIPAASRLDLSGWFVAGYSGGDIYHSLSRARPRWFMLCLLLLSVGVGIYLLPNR
Compound C=CCN(C(=O)CCCC)c1cc(-c2ccccc2)sc1C(=O)O [Compound 399, 3-(ALLYL-PENTANOYL-AMINO)-5- PHENYL-THIOPHENE-2-CARBOXYLIC ACID] has a pIC50 of 4.70 to 5.30.
For C=CCN(C(=O)CCC(C)C)c1cc(-c2ccccc2)sc1C(=O)O [Compound 400, 3-[ALLYL-(4-METHYL-PENTANOYL)- AMINO]-5-PHENYL-THIOPHENE-2- CARBOXYLIC ACID], the pIC50 was 4.70 to 5.30.
In the case of C=CCN(C(=O)CC1CCCC1)c1cc(-c2ccccc2)sc1C(=O)O [Compound 401, 3-[ALLYL-(2-CYCLOPENTYL-ACETYL)- AMINO]-5-PHENYL-THIOPHENE-2- CARBOXYLIC ACID], the pIC50 was > 5.30.
For CC1CCC(C(=O)N(c2cc(-c3ccccc3)sc2C(=O)O)C(C)C)C(O)C1 (stereo not shown) [Compound 402, 3-[(2-HYDROXY-4-METHYL- CYCLOHEXANECARBONYL)-ISOPROPYL- AMINO]-5-PHENYL-THIOPHENE-2- CARBOXYLIC ACID], the pIC50 was > 5.30.
In the case of CC(c1ccccc1)N(C(=O)c1ccc(Cl)cc1Cl)c1cc(-c2ccccc2)sc1C(=O)O (stereo not shown) [Compound 403, 3-[(2,4-DICHLORO-BENZOYL)-(1-PHENYL- ETHYL)-AMINO]-5-PHENYL-THIOPHENE- 2-CARBOXYLIC ACID], the pIC50 was > 5.30.
In the case of CC1=CCC(C(=O)N(c2cc(-c3ccccc3)sc2C(=O)O)C(C)C)C1 (stereo not shown) [Compound 405, 3-[ISOPROPYL-(3-METHYL-CYCLOPENT- 3-ENECARBONYL)-AMINO]-5-PHENYL- THIOPHENE-2-CARBOXYLIC ACID], the pIC50 was > 5.30.
In the case of Cc1ccc(C(=O)N(c2cc(-c3cccc(C(F)(F)F)c3)sc2C(=O)O)C(C)C)c(OCc2ccccc2)c1 [Compound 406, 3-[(2-BENZLOXY-4-METHYL-BENZOYL)- ISOPROPYL-AMINO]-5-(3- TRIFLUOROMETHYL-PHENYL)- THIOPHENE-2-CARBOXYLIC ACID], the pIC50 was > 5.30.
With CC1CCC(C(=O)N(c2cc(-c3ccccc3)sc2C(=O)O)C(C)C)C(C)C1 (stereo not shown) [Compound 407, 3-[(2,4-DIMETHYL- CYCLOHEXANECARBONYL)-ISOPROPYL- AMINO]-5-PHENYL-THIOPHENE-2- CARBOXYLIC ACID] the pIC50 was > 5.30.
CC1CCC(C(=O)N(c2cc(-c3ccccc3)sc2C(=O)O)C(C)C)C1 (stereo not shown) [Compound 408, 3-[ISOPROPYL-(3-METHYL- CYCLOPENTANECARBONYL)-AMINO]-5- PHENYL-THIOPHENE-2-CARBOXYLIC ACID] was tested, and the pIC50 was 4.70 to 5.30.
In the case of CC1CCC(C(=O)N(c2cc(-c3ccccc3)sc2C(=O)O)C(C)C)C(O)C1 (stereo not shown) [Compound 409, 3-[(2-HYDROXY-4-METHYL- CYCLOHEXANECARBONYL)-ISOPROPYL- AMINO]-5-PHENYL-THIOPHENE-2- CARBOXYLIC ACID], the pIC50 was > 5.30.
Work on CCC(=O)N(Cc1ccc(C(F)(F)F)cc1)c1cc(-c2ccccc2)sc1C(=O)O [Compound 410, 5-PHENYL-3-[PROPIONYL-(4- TRIFLUOROMETHYL-BENZYL)-AMINO]- THIOPHENE-2-CARBOXYLIC ACID] yielded a pIC50 of 4.70 to 5.30.
In the case of CC(C)C(=O)N(Cc1ccc(C(F)(F)F)cc1)c1cc(-c2ccccc2)sc1C(=O)O [Compound 411, 3-[ISOBUTYRYL-(4-TRIFLUOROMETHYL- BENZYL)-AMINO]-5-PHENYL-THIOPHENE- 2-CARBOXYLIC ACID], the pIC50 was 4.70 to 5.30.

Same assay, conditions: related polymerase activity (Example 27 list); read-out: IC50
CC(=O)c1cc(-c2cc(NS(=O)(=O)c3ccc(C)cc3C)c(C(=O)O)s2)cs1 [Compound 367, 5′-ACETYL-4-(2,4-DIMETHYL- BENZENESULFONYLAMINO)- [2,3′]BITHIOPHENYL-5-CARBOXYLIC ACID] was tested, and the pIC50 was > 5.30.
With Cc1ccccc1S(=O)(=O)Nc1cc(-c2ccc(NS(C)(=O)=O)cc2)sc1C(=O)O [Compound 369, 5-(4-METHANESULFONYLAMINO- PHENYL)-3- (TOLUENE-2-SULFONYLAMINO)- THIOPHENE- 2-CARBOXYLIC ACID] the pIC50 was 4.70 to 5.30.
With Cc1cc(F)ccc1S(=O)(=O)Nc1cc(-c2ccccc2)sc1C(=O)O [Compound 370, 3-(4-FLUORO-2-METHYL- BENZENESULFONYLAMINO)-5-PHENYL- THIOPHENE-2-CARBOXYLIC ACID] the pIC50 was 4.70 to 5.30.
For CC1CCCC(C(=O)N(c2cc(-c3ccccc3)sc2C(=O)O)C(C)C)C1 (stereo not shown) [Compound 371, 3-[(3-METHYL- CYCLOHEXANECARBOXYL)-ISOPROPYL- AMINO]-5-PHENYL-THIOPHENE-2- CARBOXYLIC ACID], the pIC50 was < 4.70.
Cc1cc(Cl)ccc1S(=O)(=O)Nc1cc(-c2ccccc2)sc1C(=O)O [Compound 372, 3-(4-CHLORO-2-METHYL- BENZENESULFONYLAMINO)-5-PHENYL- THIOPHENE-2-CARBOXYLIC ACID] was tested, and the pIC50 was > 5.30.
CC(C)N(C(=O)c1ccc(Cl)cc1Cl)c1cc(-c2ccc(S(C)(=O)=O)cc2)sc1C(=O)O [Compound 373, 3-[(2,4-DICHLORO-BENZOYL)- ISOPROPYL-AMINO]-5-(4- METHANESULFONYL-PHENYL)- THIOPHENE-2-CARBOXYLIC ACID] was tested, and the pIC50 was > 5.30.
With CC(C)N(C(=O)c1ccc(Cl)cc1Cl)c1cc(-c2ccc([S+](C)[O-])cc2)sc1C(=O)O (stereo not shown) [Compound 374, 3-[(2,4-DICHLORO-BENZOYL)- ISOPROPYL-AMINO]-5-(4- METHANESULFINYL-PHENYL)- THIOPHENE-2-CARBOXYLIC ACID] the pIC50 was > 5.30.
With CC(C)N(C(=O)c1ccc(Cl)cc1Cl)c1cc(-c2ccc(C(=O)O)cc2)sc1C(=O)O [Compound 375, 5-(4-CARBOXY-PHENYL)-3-[(2,4- DICHLORO-BENZOYL)-ISOPROPYL- AMINO]-THIOPHENE-2-CARBOXYLIC ACID] the pIC50 was > 5.30.
For CC(C)N(C(=O)c1ccc(Cl)cc1Cl)c1cc(-c2cc3ccccc3o2)sc1C(=O)O [Compound 376, 5-BENZOFURAN-2-YL-3-[(2,4-DICHLORO- BENZOYL)-ISOPROPYL-AMINO]- THIOPHENE-2-CARBOXYLIC ACID], the pIC50 was > 5.30.
Compound CC(=O)Oc1cc(C)ccc1C(=O)N(c1cc(-c2ccccc2)sc1C(=O)O)C(C)C [Compound 377, 3-[(2-ACETOXY-4-METHYL-BENZOYL)- ISOPROPYL-AMINO]-5-PHENYL- THIOPHENE-2-CARBOXYLIC ACID] has a pIC50 of 4.70 to 5.30.
Compound CC1CCCCC1C(=O)N(c1cc(-c2ccccc2)sc1C(=O)O)C(C)C (stereo not shown) [Compound 378, 3-[ISOPROPYL-(2-METHYL- CYCLOHEXANECARBONYL)-AMINO]-5- PHENYL-THIOPHENE-2-CARBOXYLIC ACID] has a pIC50 of 4.70 to 5.30.
CC1CCCCC1C(=O)N(c1cc(-c2ccccc2)sc1C(=O)O)C(C)C (stereo not shown) [Compound 379, 3-[ISOPROPYL-(2-METHYL- CYCLOHEXANECARBONYL)-AMINO]-5- PHENYL-THIOPHENE-2-CARBOXYLIC ACID] gave a pIC50 of 4.70 to 5.30.
With CC(C)N(C(=O)C1CCCCCC1)c1cc(-c2ccccc2)sc1C(=O)O [Compound 380, 3-(CYCLOHEPTANECARBONYL- ISOPROPYL-AMINO)-5-PHENYL- THIOPHENE-2-CARBOXYLIC ACID] the pIC50 was > 5.30.
With CC1CCC(C(=O)N(c2cc(-c3cccc(C(F)(F)F)c3)sc2C(=O)O)C(C)C)CC1 (stereo not shown) [Compound 381, 3-[ISOPROPYL-(4-METHYL- CYCLOHEXANECARBONYL)-AMINO]-5-(3- TRIFLUOROMETHYL-PHENYL)- THIOPHENE-2-CARBOXYLIC ACID] the pIC50 was > 5.30.
For Cc1cc(N(C(=O)c2ccc(Cl)cc2Cl)C(C)C)c(C(=O)O)s1 [Compound 382, 3-[(2,4-DICHLORO-BENZOYL)- ISOPROPYL-AMINO]-5-METHYL- THIOPHENE-2-CARBOXYLIC ACID], the pIC50 was > 5.30.
With CC1CCC(C(=O)N(c2cc(-c3cccc([N+](=O)[O-])c3)sc2C(=O)O)C(C)C)CC1 (stereo not shown) [Compound 383, 3-[ISOPROPYL-(4-METHYL- CYCLOHEXANECARBONYL)-AMINO]-5-(3- NITRO-PHENYL)-THIOPHENE-2- CARBOXYLIC ACID] the pIC50 was > 5.30.
For CN(C(=O)CCC1CCCC1)c1cc(-c2ccccc2)sc1C(=O)O [Compound 384, 3-[(3-CYCLOPENTYL-PROPIONYL)- METHYL-AMINO]-5-PHENYL-THIOPHENE- 2-CARBOXYLIC ACID], the pIC50 was > 5.30.
Work on CCCC(=O)N(C)c1cc(-c2ccccc2)sc1C(=O)O [Compound 385, 3-(BUTYRYL-METHYL-AMINO)-5-PHENYL- THIOPHENE-2-CARBOXYLIC ACID] yielded a pIC50 of 4.70 to 5.30.
In the case of C=CCCC(=O)N(C)c1cc(-c2ccccc2)sc1C(=O)O [Compound 386, 3-(METHYL-PENT-4-ENOYL-AMINO)-5- PHENYL-THIOPHENE-2-CARBOXYLIC ACID], the pIC50 was 4.70 to 5.30.
CCCCC(=O)N(C)c1cc(-c2ccccc2)sc1C(=O)O [Compound 389, 3-(METHYL-PENTANOYL-AMINO)-5- PHENYL-THIOPHENE-2-CARBOXYLIC ACID] was tested, and the pIC50 was > 5.30.
With CC(C)CCC(=O)N(C)c1cc(-c2ccccc2)sc1C(=O)O [Compound 390, 3-[METHYL-(4-METHYL-PENTANOYL)- AMINO]-5-PHENYL-THIOPHENE-2- CARBOXYLIC ACID] the pIC50 was 4.70 to 5.30.
CCN(C(=O)C1CCCC1)c1cc(-c2ccccc2)sc1C(=O)O [Compound 391, 3-(CYCLOPENTANECARBONYL-ETHYL- AMINO)-5-PHENYL-THIOPHENE-2- CARBOXYLIC ACID] was tested, and the pIC50 was 4.70 to 5.30.
In the case of CCN(C(=O)CCC1CCCC1)c1cc(-c2ccccc2)sc1C(=O)O [Compound 392, 3-[(3-CYCLOPENTYL-PROPIONYL)- ETHYL-AMINO]-5-PHENYL-THIOPHENE-2- CARBOXYLIC ACID], the pIC50 was > 5.30.
Work on CCN(C(=O)C1CCC1)c1cc(-c2ccccc2)sc1C(=O)O [Compound 393, 3-(CYCLOBUTANECARBONYL-ETHYL- AMINO)-5-PHENYL-THIOPHENE-2- CARBOXYLIC ACID] yielded a pIC50 of 4.70 to 5.30.
For C/C=C/C(=O)N(CC)c1cc(-c2ccccc2)sc1C(=O)O [Compound 394, 3-(BUT-2-ENOYL-ETHYL-AMINO)-5- PHENYL-THIOPHENE-2-CARBOXYLIC ACID], the pIC50 was 4.70 to 5.30.
C=Cc1cc(C)ccc1C(=O)N(c1cc(-c2ccccc2)sc1C(=O)O)C(C)C [Compound 395, 3-[ISOPROPYL-(4-METHYL-2-VINYL- BENZOYL)-AMINO]-5-PHENYL- THIOPHENE-2-CARBOXYLIC ACID] gave a pIC50 of 4.70 to 5.30.
Work on C=CCN(C(=O)CCCCC)c1cc(-c2ccccc2)sc1C(=O)O [Compound 397, 3-(ALLYL-HEXANOYL-AMINO)-5-PHENYL- THIOPHENE-2-CARBOXYLIC ACID] yielded a pIC50 of 4.70 to 5.30.
For C=CCN(C(=O)C1CCC1)c1cc(-c2ccccc2)sc1C(=O)O [Compound 398, 3-(ALLYL-CYCLOBUTANECARBONYL- AMINO)-5-PHENYL-THIOPHENE-2- CARBOXYLIC ACID], the pIC50 was < 4.70.
